Test results taken from PubChem BioAssay AID330 (DTP/NCI, 2004).
“And” between values parts separate entries of the source, which are not always exact repeats. Equal entries are not always repeated. Toxic doses and inconclusive results are not listed. Rule for the calls: active = survival T/C of 150% or more; inactive = T/C below 125% in these data.

Test system: P388 leukemia ip, CD2F1 mice, survival T/C
Assay: NCI In Vivo Anticancer Drug Screen. Data for tumor model P388 Leukemia (intraperitoneal) in CD2F1 (CDF1) mice
Conditions: endpoint: median survival time, higher = longer survival
Summary of the method: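 Mice carrying the transplanted tumor received test compound or vehicle. Survival was recorded in each group, and the value is the treated-group measurement divided by that of the vehicle-treated control group.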

[1] = dose: 50.0 mg/kg/injection, schedule: Q01DX005 (ip), vehicle: Klucel (hydroxypropylcellulose) (HPC)
[2] = dose: 100.0 mg/kg/injection, schedule: Q01DX005 (ip), vehicle: Klucel (hydroxypropylcellulose) (HPC)
[3] = dose: 50.0 mg/kg/injection, schedule: Q01DX009 (ip), vehicle: saline with Tween-80
[4] = dose: 100.0 mg/kg/injection, schedule: Q01DX009 (ip), vehicle: saline with Tween-80
[5] = dose: 200.0 mg/kg/injection, schedule: Q01DX009 (ip), vehicle: saline with Tween-80
[6] = dose: 50.0 mg/kg/injection, schedule: Q01DX005 (ip), vehicle: saline with Tween-80
[7] = dose: 12.5 mg/kg/injection, schedule: Q01DX005 (ip), vehicle: saline with Tween-80
[8] = dose: 25.0 mg/kg/injection, schedule: Q01DX005 (ip), vehicle: saline with Tween-80
[9] = dose: 50.0 mg/kg/injection, schedule: Q01DX009 (ip), vehicle: saline
[10] = dose: 100.0 mg/kg/injection, schedule: Q01DX009 (ip), vehicle: saline
[11] = dose: 200.0 mg/kg/injection, schedule: Q01DX009 (ip), vehicle: saline

Measured: T/C

C1=C[N-]c2c3c(ccc2=C1)=CC=C[N-]3.C1=C[N-]c2c3c(ccc2=C1)=CC=C[N-]3.[Cl][Ru][Cl]
inactive: dose: 1.56 mg/kg/injection, schedule: Q01DX005 (ip), vehicle: saline with Tween-80 88 % of control | dose: 3.13 mg/kg/injection, schedule: Q01DX005 (ip), vehicle: saline with Tween-80 111 % of control | dose: 6.25 mg/kg/injection, schedule: Q01DX005 (ip), vehicle: saline with Tween-80 104 % of control

COc1ccc(/C=N/Nc2nnc3c4cccnc4c4ccccc4c3n2)cc1OC
inactive: dose: 3.12 mg/kg/injection, schedule: Q01DX001 (ip), vehicle: saline with Tween-80 102 % of control and 87 % of control | dose: 6.25 mg/kg/injection, schedule: Q01DX001 (ip), vehicle: saline with Tween-80 100 % of control and 87 % of control | dose: 50.0 mg/kg/injection, schedule: Q01DX001 (ip), vehicle: saline with Tween-80 104 % of control and 112 % of control | dose: 100.0 mg/kg/injection, schedule: Q01DX001 (ip), vehicle: saline with Tween-80 100 % of control and 111 % of control | dose: 200.0 mg/kg/injection, schedule: Q01DX001 (ip), vehicle: saline with Tween-80 106 % of control and 114 % of control | dose: 400.0 mg/kg/injection, schedule: Q01DX001 (ip), vehicle: saline with Tween-80 107 % of control

CC(=O)Nc1cc(Cl)cc2c1-c1ccc(Cl)cc1C2=O
inactive: [1] 88 % of control | [2] 94 % of control

Cc1cc(NC(=O)Nc2ccc(F)cc2)no1
inactive: dose: 60.0 mg/kg/injection, schedule: Q01DX005 (ip), vehicle: saline with Tween-80 94 % of control | dose: 120.0 mg/kg/injection, schedule: Q01DX005 (ip), vehicle: saline with Tween-80 93 % of control | dose: 240.0 mg/kg/injection, schedule: Q01DX005 (ip), vehicle: saline with Tween-80 96 % of control

CCCS(=O)(=O)CCC(=O)c1ccccc1
inactive: dose: 100.0 mg/kg/injection, schedule: Q04DX002 (ip), vehicle: saline 101 % of control | dose: 200.0 mg/kg/injection, schedule: Q04DX002 (ip), vehicle: saline 107 % of control | dose: 400.0 mg/kg/injection, schedule: Q04DX002 (ip), vehicle: saline 102 % of control

CCCCCCCCCCCCCCCC[N+](C)(C)CCBr
inactive: dose: 3.13 mg/kg/injection, schedule: Q01DX009 (ip), vehicle: saline with Tween-80 109 % of control and 100 % of control | dose: 6.25 mg/kg/injection, schedule: Q01DX009 (ip), vehicle: saline with Tween-80 122 % of control and 93 % of control and 103 % of control | dose: 12.5 mg/kg/injection, schedule: Q01DX009 (ip), vehicle: saline with Tween-80 115 % of control [middle of 4 runs]

C1CN2CCOC2O1
inactive: dose: 60.0 mg/kg/injection, schedule: Q01DX005 (ip), vehicle: saline 100 % of control | dose: 120.0 mg/kg/injection, schedule: Q01DX005 (ip), vehicle: saline 101 % of control | dose: 240.0 mg/kg/injection, schedule: Q01DX005 (ip), vehicle: saline 99 % of control

O=C1CCCCC2CC2C1=O (stereo not given) (tested in a mixture with another compound)
inactive: dose: 50.0 mg/kg/injection, schedule: Q01DX009 (ip), vehicle: other 101 % of control | dose: 100.0 mg/kg/injection, schedule: Q01DX009 (ip), vehicle: other 100 % of control | dose: 200.0 mg/kg/injection, schedule: Q01DX009 (ip), vehicle: other 108 % of control

O=C1C(=O)c2ccccc2C(O)=C1CCCc1ccc(C2CCCCCC2)cc1
inactive: dose: 25.0 mg/kg/injection, schedule: Q01DX009 (ip), vehicle: saline with Tween-80 86 % of control | [3] 88 % of control | [4] 89 % of control | [5] 95 % of control

CC(=O)Nc1nnc(-c2cc(=O)c3cc(Cl)ccc3o2)s1
inactive: [6] 101 % of control | dose: 100.0 mg/kg/injection, schedule: Q01DX005 (ip), vehicle: saline with Tween-80 92 % of control | dose: 200.0 mg/kg/injection, schedule: Q01DX005 (ip), vehicle: saline with Tween-80 97 % of control

OCCC1CCN(CC/C=C2/c3ccc(F)cc3Sc3ccc(C(F)(F)F)cc32)CC1
inactive: dose: 25.0 micrograms/kg/injection, schedule: Q01DX001 (ip), vehicle: saline 99 % of control | dose: 50.0 micrograms/kg/injection, schedule: Q01DX001 (ip), vehicle: saline 114 % of control and 96 % of control | dose: 100.0 micrograms/kg/injection, schedule: Q01DX001 (ip), vehicle: saline 117 % of control

OC1CC2CCC(N2)C1c1ccccc1 (stereo not given)
inactive: [7] 94 % of control | [8] 86 % of control | [6] 101 % of control and 93 % of control

COc1cccc2c1C1c3ccccc3Sc3cccc(c31)O2 (stereo not given)
inactive: dose: 25.0 mg/kg/injection, schedule: Q01DX005 (ip), vehicle: Klucel (hydroxypropylcellulose) (HPC) 98 % of control | [1] 100 % of control | [2] 100 % of control | dose: 200.0 mg/kg/injection, schedule: Q01DX005 (ip), vehicle: Klucel (hydroxypropylcellulose) (HPC) 99 % of control

CC1=CC(Cc2ccccc2)N(C)C(C#N)C1 (stereo not given)
inactive: [7] 101 % of control | [8] 105 % of control | [6] 109 % of control and 116 % of control

Cc1cc(C2(c3cc(C)c(O)c(CN(CC(=O)O)CC(=O)O)c3)OS(=O)(=O)c3ccccc32)cc(CN(CC(=O)O)CC(=O)O)c1O
inactive: [9] 105 % of control | [10] 96 % of control | [11] 104 % of control

O=C(CC(=O)Nc1ccccc1)Cc1ccccc1
inactive: dose: 50.0 mg/kg/injection, schedule: Q01DX009 (ip), vehicle: Klucel (hydroxypropylcellulose) (HPC) 102 % of control | dose: 100.0 mg/kg/injection, schedule: Q01DX009 (ip), vehicle: Klucel (hydroxypropylcellulose) (HPC) 97 % of control | dose: 200.0 mg/kg/injection, schedule: Q01DX009 (ip), vehicle: Klucel (hydroxypropylcellulose) (HPC) 99 % of control

C=C1C(C)C2C(Cc3ccccc3)NC(=O)C23C(OC(C)=O)C=CC(C)(O)C(=O)C(C)C/C=C/C3C1O (stereo not given)
inactive: dose: 0.62 mg/kg/injection, schedule: Q01DX009 (ip), vehicle: Klucel (hydroxypropylcellulose) (HPC) 107 % of control | dose: 0.63 mg/kg/injection, schedule: Q01DX009 (ip), vehicle: Klucel (hydroxypropylcellulose) (HPC) 107 % of control | dose: 1.25 mg/kg/injection, schedule: Q01DX009 (ip), vehicle: Klucel (hydroxypropylcellulose) (HPC) 107 % of control and 97 % of control | dose: 2.5 mg/kg/injection, schedule: Q01DX009 (ip), vehicle: Klucel (hydroxypropylcellulose) (HPC) 107 % of control and 120 % of control | dose: 5.0 mg/kg/injection, schedule: Q01DX009 (ip), vehicle: Klucel (hydroxypropylcellulose) (HPC) 100 % of control and 103 % of control

CC(C)(C)N=C(CCN1CCCCC1)Nc1cccc(Cl)c1
inactive: [3] 110 % of control | [4] 106 % of control | [5] 98 % of control

Cc1cc(Cl)ccc1NC(=O)C(=O)C(C#N)c1c(Cl)cccc1Cl (stereo not given)
inactive: dose: 100.0 mg/kg/injection, schedule: Q04DX002 (ip), vehicle: saline with Tween-80 101 % of control | dose: 200.0 mg/kg/injection, schedule: Q04DX002 (ip), vehicle: saline with Tween-80 105 % of control | dose: 400.0 mg/kg/injection, schedule: Q04DX002 (ip), vehicle: saline with Tween-80 100 % of control

CC1C(c2ccccc2)OCN1CC=C(c1ccsc1)c1ccsc1 (stereo not given)
inactive: dose: 60.0 mg/kg/injection, schedule: Q01DX005 (ip), vehicle: Klucel (hydroxypropylcellulose) (HPC) 96 % of control | dose: 120.0 mg/kg/injection, schedule: Q01DX005 (ip), vehicle: Klucel (hydroxypropylcellulose) (HPC) 91 % of control | dose: 240.0 mg/kg/injection, schedule: Q01DX005 (ip), vehicle: Klucel (hydroxypropylcellulose) (HPC) 91 % of control

Nc1ncccc1OCc1ccccc1
inactive: [9] 100 % of control and 110 % of control | [10] 107 % of control and 116 % of control | [11] 113 % of control and 98 % of control | dose: 400.0 mg/kg/injection, schedule: Q01DX009 (ip), vehicle: saline 100 % of control and 95 % of control
